{
  "source": "patent US11766441B2",
  "about": "“Oral liquid compositions including chlorpromazine” (GENUS LIFESCIENCES INC., priority 2020, dated 2023)",
  "key": {"[1]": {"assay": "Drug-excipient compatibility: HPLC assay and impurities of 20 mg/ml API/excipient solutions in purified water after storage", "type": "physicochemical", "description": "Common excipients functioning as a solvent, a sweetener, an antioxidant, a chelating agent, a buffer system component, and a preservative were evaluated in the following example for excipient and drug substance compatibility. Compatibility was assessed through high performance liquid chromatography (HPLC) analysis of solutions containing the mixtures of the drug substance and the individual evaluated excipient in purified water. A relatively low concentration (20 mg/ml) of active pharmaceutical ingredient was selected to enhance potential oxidative or hydrolytic degradation of the API in the presence of the excipients. The excipients were used in slight excess to enhance potential interactions. The proportion of excipients was selected such that it was representative of their respective proportions to the API in the finished product.\nAdditionally, the pH of the solution was also monitored during development to ensure the physical stability of the product."}, "[2]": {"conditions": "pH range of 1 to 12 at ambient temperature; cited from earlier work"}, "[3]": {"conditions": "after storage for 1 Month at 25° C./60% RH"}, "[4]": {"conditions": "after storage for 1 Month at 40° C./75% RH"}, "[5]": {"conditions": "after storage for 15 days at 60° C."}},
  "data": [
    {"smiles": "CN(C)CCCN1c2ccccc2Sc2ccc(Cl)cc21.Cl", "note": "[Chlorpromazine hydrochloride, 2-chloro-10-[3-(dimethylamino)propyl] phenothiazine hydrochloride]", "values": [
      {"measurement": "Assay of Chlorpromazine Hydrochloride (% Label Claim)", "setting": "[1]; 1 M, 25° C./60% RH", "result": 98.6, "unit": "% Label Claim"},
      {"measurement": "Assay of Chlorpromazine Hydrochloride (% Label Claim)", "setting": "[1]; 1 M, 40° C./75% RH", "result": 98.7, "unit": "% Label Claim"},
      {"measurement": "Assay of Chlorpromazine Hydrochloride (% Label Claim)", "setting": "[1]; 15 Days, 60° C.", "result": 100.9, "unit": "% Label Claim"},
      {"measurement": "Assay of Chlorpromazine Hydrochloride (% Label Claim)", "setting": "[1]; T0", "result": 98.3, "unit": "% Label Claim"},
      {"measurement": "Impurities (%) A", "setting": "[1]; [3]", "result": 0.07, "unit": "%"},
      {"measurement": "Impurities (%) C", "setting": "[1]; [3]", "result": 0.07, "unit": "%"},
      {"measurement": "Impurities (%) D", "setting": "[1]; [3]", "result": 0.03, "unit": "%"},
      {"measurement": "Impurities (%) Total", "setting": "[1]; [3]", "result": 0.24, "unit": "%"},
      {"measurement": "Impurities (%) UD (RRT 0.55)", "setting": "[1]; [3]", "result": 0.02, "unit": "%"},
      {"measurement": "Impurities (%) UD (RRT 0.61)", "setting": "[1]; [3]", "result": 0.02, "unit": "%"},
      {"measurement": "Impurities (%) UD (RRT 1.42)", "setting": "[1]; [3]", "result": 0.03, "unit": "%"},
      {"measurement": "Impurities (%) A", "setting": "[1]; [4]", "result": 0.21, "unit": "%"},
      {"measurement": "Impurities (%) C", "setting": "[1]; [4]", "result": 0.07, "unit": "%"},
      {"measurement": "Impurities (%) D", "setting": "[1]; [4]", "result": 0.08, "unit": "%"},
      {"measurement": "Impurities (%) Total", "setting": "[1]; [4]", "result": 0.44, "unit": "%"},
      {"measurement": "Impurities (%) UD (RRT 0.55)", "setting": "[1]; [4]", "result": 0.02, "unit": "%"},
      {"measurement": "Impurities (%) UD (RRT 0.61)", "setting": "[1]; [4]", "result": 0.02, "unit": "%"},
      {"measurement": "Impurities (%) UD (RRT 1.42)", "setting": "[1]; [4]", "result": 0.03, "unit": "%"},
      {"measurement": "Impurities (%) A", "setting": "[1]; [5]", "result": 0.55, "unit": "%"},
      {"measurement": "Impurities (%) C", "setting": "[1]; [5]", "result": 0.08, "unit": "%"},
      {"measurement": "Impurities (%) D", "setting": "[1]; [5]", "result": 0.18, "unit": "%"},
      {"measurement": "Impurities (%) E", "setting": "[1]; [5]", "result": 0.02, "unit": "%"},
      {"measurement": "Impurities (%) Total", "setting": "[1]; [5]", "result": 1.04, "unit": "%"},
      {"measurement": "Impurities (%) UD (RRT 0.49)", "setting": "[1]; [5]", "result": 0.02, "unit": "%"},
      {"measurement": "Impurities (%) UD (RRT 0.55)", "setting": "[1]; [5]", "result": 0.14, "unit": "%"},
      {"measurement": "Impurities (%) UD (RRT 0.61)", "setting": "[1]; [5]", "result": 0.03, "unit": "%"},
      {"measurement": "Impurities (%) UD (RRT 1.42)", "setting": "[1]; [5]", "result": 0.03, "unit": "%"},
      {"measurement": "Impurities (%) Total", "setting": "[1]; time zero", "result": 0.11, "unit": "%"},
      {"measurement": "Impurities (%) UD (RRT 0.82)", "setting": "[1]; time zero", "result": 0.08, "unit": "%"},
      {"measurement": "Impurities (%) UD (RRT 1.31)", "setting": "[1]; time zero", "result": 0.03, "unit": "%"},
      {"measurement": "solubility", "setting": "[2]", "result": "greater than 1 g/mL"}
    ]}
  ]
}
